System: tyrosinase from human melanocytes
Assay: dopa-oxidase activity of tyrosinase from human melanocytes
Format: cell-based
Procedure: Human melanocytes were prepared and cultured and then introduced into media containing different concentrations of 5-(n-octanoyl)salicylic acid (0.5 μM, 1 μM, 2 μM and 5 μM).
After three days, the melanocytes were "trypsinizated" in a 0.05%/0.02% trypsin/EDTA mixture in a phosphate buffer (50 mM at pH 6.8), washed three times in phosphate buffer containing 1% (w/v) of TRITON X-100 and subjected to ultrasound. After centrifuging, samples were withdrawn and mixed with 5 mM L-DOPA in phosphate buffer. The tyrosinase activity was evaluated by spectrophotometry. The increase in the absorbance at 475 nm is due to the formation of dopachrome from 5 mM DOPA being measured. The absorbance was read on a microplate reader at 25° C. for 60 min.
The activity of the cellular tyrosinase was measured with respect to a calibration range prepared with commercially available tyrosinase.

CCCCCCCC(=O)c1ccc(O)c(C(=O)O)c1 [5-(n-octanoyl)salicylic acid]
decrease of dopa-oxidase activity of the tyrosinase from the melanocytes (concentration of 5 μM, three days): more particularly pronounced
dopa-oxidase activity of the tyrosinase from the melanocytes (percentage of activity with respect to the starting activity, FIG. 1) (human melanocytes cultured three days with 0.5 μM, 1 μM, 2 μM and 5 μM, 5 mM L-DOPA, absorbance at 475 nm): significantly decreases
